What was measured:
[1] = target: T1, full-length Plk1 / biotinylated PBIP1 phospho-T78 peptide interaction (Homo sapiens, UniProt P53350); assay: ELISA-based PBD1-binding inhibition assay; details: at least three independent experiments; read-out: ELISA (IC50) Mean ± SEM
T1 construct: HA; EGFP; expressed in transfected cells; host or cells: HEK293A cells infected with adenovirus; total lysates

[2] = test system: multiple myeloma-derived L363 cells; assay: Colorimetric MTS cell viability assay; assay type: cell-based
Source text: • *Data from Park, J. E., et al {Park, 2023 #3387}. **Data from Alverez C. N., et al {Alverez, 2020 #3186}. N. S., Not significant; N. D., Not determined. ^a IC50 values determined from at least three independent experiments except as noted in parentheses. b A colorimetric MTS cell viability assay carried out using multiple myeloma-derived L363 cells.

PBD1 = PBD1 (Homo sapiens, UniProt P53350); assay: FP-based inhibition assay; assay type: binding; details: read-out: PBD1 IC50 ± SD
Description: In the following, PBD1-3 fluorescence polarization (FP) binding assays were carried out for determining the Plk1 specificity. […] All samples were analyzed approximately 30 min after reaction in a 384-well format using the SpectraMax Paradigm multi-mode microplate detection platform (Molecular Devices). Data were analyzed after carrying out at least three independent experiments using GraphPad Prism software version 7.

Plk2 PBD = assay: FP-based inhibition assay; assay type: binding; details: N.S. = Not significant
Description: (§1) In the following, PBD1-3 fluorescence polarization (FP) binding assays were carried out for determining the Plk1 specificity. FP assays were carried out essentially as described previously {Liu, 2011 #2790; Qian, 2014 #1416}. All samples were analyzed approximately 30 min after reaction in a 384-well format using the SpectraMax Paradigm multi-mode microplate detection platform (Molecular Devices). Data were analyzed after carrying out at least three independent experiments using GraphPad Prism software version 7.

Plk3 PBD = assay: FP-based inhibition assay; assay type: binding; details: N.S. = Not significant
Description: as §1

[3] = Conversion of Allopole to Allopole-A under various buffer conditions (mass spectroscopy); assay type: physicochemical; details: RT, 1 h; for Compound detected / Compound detected, % of total / Compound detected, pk area: 100 uM Allopole incubated
Description: This Example illustrates the conversion of Allopole to Allopole-A under various buffer conditions, RT, 1 h (JE), as set forth in Table 4
Samples were prepared by incubating Allopole in the indicated buffer conditions without or with 5 mM GSH for 1 h, at RT.

5-HT1A = 5-HT1A (Homo sapiens, UniProt P08908); assay: Off-target primary and secondary screen; assay type: binding; details: 10 mM sample
Chain of 5-HT1A (P08908 whole entry, species assumed): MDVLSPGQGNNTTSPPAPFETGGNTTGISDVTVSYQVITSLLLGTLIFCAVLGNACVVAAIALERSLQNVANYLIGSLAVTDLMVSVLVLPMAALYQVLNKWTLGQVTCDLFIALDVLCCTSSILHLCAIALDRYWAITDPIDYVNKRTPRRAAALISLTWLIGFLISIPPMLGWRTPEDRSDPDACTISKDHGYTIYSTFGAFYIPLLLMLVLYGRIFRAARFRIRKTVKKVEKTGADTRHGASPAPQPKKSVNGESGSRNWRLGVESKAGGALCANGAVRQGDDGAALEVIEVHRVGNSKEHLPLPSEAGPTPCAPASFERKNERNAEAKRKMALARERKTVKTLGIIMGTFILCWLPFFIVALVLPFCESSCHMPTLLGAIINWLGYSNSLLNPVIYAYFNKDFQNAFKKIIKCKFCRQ

5-HT1D = 5-HT1D (Homo sapiens, UniProt P28221); assay: Off-target primary and secondary screen; assay type: binding; details: 10 mM sample
Chain of 5-HT1D (P28221 whole entry, species assumed): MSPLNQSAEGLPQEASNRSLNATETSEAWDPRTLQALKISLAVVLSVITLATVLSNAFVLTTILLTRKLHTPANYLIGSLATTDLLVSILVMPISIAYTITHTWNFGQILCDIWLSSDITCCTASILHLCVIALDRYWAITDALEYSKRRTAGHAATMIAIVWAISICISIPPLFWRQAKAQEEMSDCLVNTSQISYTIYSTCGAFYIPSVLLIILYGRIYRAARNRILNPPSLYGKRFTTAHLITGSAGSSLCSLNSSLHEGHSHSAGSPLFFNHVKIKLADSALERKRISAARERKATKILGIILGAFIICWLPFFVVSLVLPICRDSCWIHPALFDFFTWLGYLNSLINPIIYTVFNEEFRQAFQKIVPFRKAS

5-HT1E = 5-HT1E (Homo sapiens, UniProt P28566); assay: Off-target primary and secondary screen; assay type: binding; details: 10 mM sample
Chain of 5-HT1E (P28566 whole entry, species assumed): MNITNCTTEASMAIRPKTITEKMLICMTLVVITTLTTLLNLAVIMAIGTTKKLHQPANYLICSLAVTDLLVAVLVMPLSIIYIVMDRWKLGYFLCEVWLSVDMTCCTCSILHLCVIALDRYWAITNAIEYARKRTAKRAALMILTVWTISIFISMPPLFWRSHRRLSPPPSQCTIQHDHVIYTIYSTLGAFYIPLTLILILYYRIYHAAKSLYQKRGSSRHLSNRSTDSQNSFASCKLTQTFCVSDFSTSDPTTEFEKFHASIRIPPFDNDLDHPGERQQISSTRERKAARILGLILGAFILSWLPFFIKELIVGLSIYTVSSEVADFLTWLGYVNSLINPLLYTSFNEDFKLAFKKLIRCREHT

Aipha1D = Aipha1D (Homo sapiens, UniProt P25100); assay: Off-target primary and secondary screen; assay type: binding; details: 10 mM sample
Chain of Aipha1D (P25100 whole entry): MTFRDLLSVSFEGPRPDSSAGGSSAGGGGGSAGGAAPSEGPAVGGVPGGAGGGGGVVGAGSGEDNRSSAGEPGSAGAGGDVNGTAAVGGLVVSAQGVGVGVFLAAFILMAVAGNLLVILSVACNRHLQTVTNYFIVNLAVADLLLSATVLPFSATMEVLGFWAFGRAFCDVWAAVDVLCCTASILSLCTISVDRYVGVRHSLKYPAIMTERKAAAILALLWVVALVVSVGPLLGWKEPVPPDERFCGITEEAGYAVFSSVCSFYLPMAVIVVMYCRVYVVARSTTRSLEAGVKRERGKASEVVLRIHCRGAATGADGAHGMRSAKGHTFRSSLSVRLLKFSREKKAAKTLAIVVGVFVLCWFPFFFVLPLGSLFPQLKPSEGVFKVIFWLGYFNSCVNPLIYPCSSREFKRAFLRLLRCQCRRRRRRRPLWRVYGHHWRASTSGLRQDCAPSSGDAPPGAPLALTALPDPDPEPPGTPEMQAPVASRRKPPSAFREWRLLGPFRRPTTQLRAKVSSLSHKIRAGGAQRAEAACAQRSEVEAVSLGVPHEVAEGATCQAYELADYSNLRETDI

Alpha2B = Alpha2B (Homo sapiens, UniProt P18089); assay: Off-target primary and secondary screen; assay type: binding; details: 10 mM sample
Chain of Alpha2B (P18089 whole entry): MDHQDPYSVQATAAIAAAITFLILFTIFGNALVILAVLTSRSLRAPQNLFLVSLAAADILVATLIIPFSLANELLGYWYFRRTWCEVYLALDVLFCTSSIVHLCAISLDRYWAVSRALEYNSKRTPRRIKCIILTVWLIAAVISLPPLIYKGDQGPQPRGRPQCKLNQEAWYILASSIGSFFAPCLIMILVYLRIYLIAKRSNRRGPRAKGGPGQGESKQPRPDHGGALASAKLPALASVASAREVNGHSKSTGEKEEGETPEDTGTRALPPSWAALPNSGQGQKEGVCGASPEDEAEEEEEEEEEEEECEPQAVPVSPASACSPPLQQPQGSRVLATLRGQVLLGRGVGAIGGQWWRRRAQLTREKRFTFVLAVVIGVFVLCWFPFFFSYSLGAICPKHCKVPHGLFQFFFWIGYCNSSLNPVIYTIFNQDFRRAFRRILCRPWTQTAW

Beta1 = Beta1 (Homo sapiens, UniProt P08588); assay: Off-target primary and secondary screen; assay type: binding; details: 10 mM sample
Chain of Beta1 (P08588 whole entry): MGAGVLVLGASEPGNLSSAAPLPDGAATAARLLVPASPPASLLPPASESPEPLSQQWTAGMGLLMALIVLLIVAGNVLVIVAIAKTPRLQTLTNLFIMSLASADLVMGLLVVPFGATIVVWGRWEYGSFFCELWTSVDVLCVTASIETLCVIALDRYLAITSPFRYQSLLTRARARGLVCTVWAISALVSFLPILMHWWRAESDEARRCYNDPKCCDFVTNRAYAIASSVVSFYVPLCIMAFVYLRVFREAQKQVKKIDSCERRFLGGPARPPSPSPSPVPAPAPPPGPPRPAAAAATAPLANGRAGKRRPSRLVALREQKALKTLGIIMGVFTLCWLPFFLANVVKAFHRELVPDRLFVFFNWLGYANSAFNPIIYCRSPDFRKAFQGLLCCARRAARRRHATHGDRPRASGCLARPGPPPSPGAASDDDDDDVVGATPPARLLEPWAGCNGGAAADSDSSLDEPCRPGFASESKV

D2 = D2 (Homo sapiens, UniProt P14416); assay: Off-target primary and secondary screen; assay type: binding; details: 10 mM sample
Chain of D2 (P14416 whole entry): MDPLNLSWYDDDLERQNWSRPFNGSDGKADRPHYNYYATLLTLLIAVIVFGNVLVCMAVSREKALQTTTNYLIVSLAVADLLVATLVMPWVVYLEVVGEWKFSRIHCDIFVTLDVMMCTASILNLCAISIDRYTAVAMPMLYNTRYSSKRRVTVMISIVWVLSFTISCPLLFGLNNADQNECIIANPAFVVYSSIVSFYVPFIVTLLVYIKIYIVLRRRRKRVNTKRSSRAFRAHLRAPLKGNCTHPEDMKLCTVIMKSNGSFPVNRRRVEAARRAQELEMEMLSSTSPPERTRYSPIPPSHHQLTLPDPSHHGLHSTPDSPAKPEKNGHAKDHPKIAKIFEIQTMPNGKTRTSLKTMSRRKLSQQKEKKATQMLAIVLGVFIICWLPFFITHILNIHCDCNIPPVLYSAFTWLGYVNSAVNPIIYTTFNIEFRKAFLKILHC

D5 = D5 (Homo sapiens, UniProt P21918); assay: Off-target primary and secondary screen; assay type: binding; details: 10 mM sample
GABAA = assay: Off-target primary and secondary screen; assay type: binding; details: for Primary screen AVE (% inhib) ± SD: 10 mM sample
M3 = M3 (Homo sapiens, UniProt P20309); assay: Off-target primary and secondary screen; assay type: binding; details: 10 mM sample
Chain of M3 (P20309 whole entry): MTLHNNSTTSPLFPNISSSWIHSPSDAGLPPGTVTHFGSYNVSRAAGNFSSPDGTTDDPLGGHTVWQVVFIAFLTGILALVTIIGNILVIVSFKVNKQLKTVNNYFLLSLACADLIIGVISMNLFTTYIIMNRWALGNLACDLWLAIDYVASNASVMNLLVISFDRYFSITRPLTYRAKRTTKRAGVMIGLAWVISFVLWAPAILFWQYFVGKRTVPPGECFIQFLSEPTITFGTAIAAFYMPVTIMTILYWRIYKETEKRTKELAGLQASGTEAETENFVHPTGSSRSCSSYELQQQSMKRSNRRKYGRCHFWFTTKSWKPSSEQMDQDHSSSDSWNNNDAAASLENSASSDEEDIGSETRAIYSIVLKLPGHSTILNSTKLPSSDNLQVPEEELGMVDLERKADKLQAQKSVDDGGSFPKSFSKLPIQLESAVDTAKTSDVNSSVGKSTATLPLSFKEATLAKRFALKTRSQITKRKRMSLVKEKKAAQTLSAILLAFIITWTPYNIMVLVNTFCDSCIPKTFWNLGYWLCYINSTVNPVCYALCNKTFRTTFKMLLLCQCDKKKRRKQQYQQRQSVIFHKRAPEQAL

MOR = MOR (Homo sapiens, UniProt P35372); assay: Off-target primary and secondary screen; assay type: binding; details: 10 mM sample
Chain of MOR (P35372 whole entry): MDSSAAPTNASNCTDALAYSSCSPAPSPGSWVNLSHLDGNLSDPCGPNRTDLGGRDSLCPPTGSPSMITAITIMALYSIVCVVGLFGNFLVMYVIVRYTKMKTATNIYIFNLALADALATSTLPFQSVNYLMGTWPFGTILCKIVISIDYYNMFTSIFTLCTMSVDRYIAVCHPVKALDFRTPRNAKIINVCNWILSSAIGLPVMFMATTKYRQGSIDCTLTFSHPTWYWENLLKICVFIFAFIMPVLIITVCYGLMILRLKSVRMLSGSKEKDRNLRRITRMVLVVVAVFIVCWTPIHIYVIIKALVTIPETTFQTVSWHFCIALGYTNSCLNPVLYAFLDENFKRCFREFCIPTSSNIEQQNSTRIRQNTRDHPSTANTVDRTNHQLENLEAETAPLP

SERT = SERT (Homo sapiens, UniProt P31645); assay: Off-target primary and secondary screen; assay type: binding; details: 10 mM sample
Sigma 1 = Sigma 1 (Homo sapiens, UniProt Q99720); assay: Off-target primary and secondary screen; assay type: binding; details: 10 mM sample
Chain of Sigma 1 (Q99720 whole entry): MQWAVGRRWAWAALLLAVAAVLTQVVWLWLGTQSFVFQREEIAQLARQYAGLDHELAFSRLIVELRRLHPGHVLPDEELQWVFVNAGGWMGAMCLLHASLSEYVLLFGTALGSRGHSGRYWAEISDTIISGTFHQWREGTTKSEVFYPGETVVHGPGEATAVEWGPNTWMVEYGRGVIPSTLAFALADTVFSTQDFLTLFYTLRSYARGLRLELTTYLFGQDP

Hela cells = assay: Immunoprecipitation, confocal imaging and time-lapse analyses in Hela cells; assay type: cell-based
Source text: FIG. 5 illustrates the inhibition by Allopole of PBD1-dependent interactions and subcellular localizations leading to mitotic block in Hela cells. FIG. 5a depicts the immunoprecipitation and immunoblotting analyses.

[4] = target: T2, PBD1 WT or mutants (F559) (Homo sapiens, UniProt P53350, F559D); assay: FP-based inhibition and U2OS imaging with PBD1/Plk1 WT or F559 mutants; assay type: binding; details: in vitro and in vivo; U2OS cells 8 μM
T2 construct: the indicated PBD1 WT or mutants in the presence of various concentrations of Allopole
T2 sequence (P53350 whole entry F559D): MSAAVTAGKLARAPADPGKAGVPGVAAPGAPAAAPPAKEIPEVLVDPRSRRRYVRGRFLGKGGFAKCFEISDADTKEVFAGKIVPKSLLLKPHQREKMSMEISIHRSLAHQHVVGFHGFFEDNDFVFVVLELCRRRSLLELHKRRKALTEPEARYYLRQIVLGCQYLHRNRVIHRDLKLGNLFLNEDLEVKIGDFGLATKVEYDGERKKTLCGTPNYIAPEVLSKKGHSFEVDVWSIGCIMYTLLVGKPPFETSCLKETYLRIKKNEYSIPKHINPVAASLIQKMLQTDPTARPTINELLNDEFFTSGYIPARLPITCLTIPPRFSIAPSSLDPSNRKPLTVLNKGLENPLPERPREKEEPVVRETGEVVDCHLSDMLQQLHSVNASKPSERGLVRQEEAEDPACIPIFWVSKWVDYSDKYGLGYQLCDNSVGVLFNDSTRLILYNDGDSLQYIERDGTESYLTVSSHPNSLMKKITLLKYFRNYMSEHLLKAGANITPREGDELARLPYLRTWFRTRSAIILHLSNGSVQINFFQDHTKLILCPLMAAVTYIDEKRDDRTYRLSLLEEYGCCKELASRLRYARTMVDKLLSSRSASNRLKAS
Description: Bars, mean #s.d. FIG. 7(b) depicts the results of FP-based inhibition assays for the interaction between FITC-Ahx-DPPLHS-pT-AI-NH2 and the indicated PBD1 WT or mutants in the presence of various concentrations of Allopole. Bars, mean±s.d. FIG. 7(c) depicts confocal imaging and quantification of Plk1 endogenous promoter (Pendo)-fused mGFP-Plk1 signals in U2OS cells silenced for endogenous Plk1 (siPlk1) and treated with 8 μM of Allopole for the indicated length of time (Experimental procedure at bottom, right). Arrowheads, centrosomes. Quantification of Pendo-mGFP-Plk1 signals was performed with the images acquired from three independent experiments [n=a total of 93, 53, and 79 cells for Plk1 WT samples (in order) and n=a total of 92, 64, and 76 cells for the F559D mutant samples (in order)]. Bars, mean±s.d. Arrowheads, centrosomes. ****, P<0.0001 (unpaired two-tailed t-test).

[5] = buffer 2 (1x PBS pH = 7.4), no GSH
[6] = buffer 3 (20 mM HEPES pH = 7.0), no GSH

T1 sequence (P53350 whole entry): as the sequence (P53350 whole entry F559D) above, with D559F counted along it

SMILES | IC50 [1] [µM] | Compound detected ([3]; buffer 1 + 5 mM GSH) [µmol/L] | Compound detected, % of total ([3]; buffer 1 + 5 mM GSH) | Compound detected, pk area ([3]; buffer 1 + 5 mM GSH) | Compound detected [3, 5] [µmol/L] | Compound detected, % of total [3, 5] | Compound detected, pk area [3, 5] | Compound detected ([3]; buffer 2 + 5 mM GSH) [µmol/L] | Compound detected, % of total ([3]; buffer 2 + 5 mM GSH) | Compound detected, pk area ([3]; buffer 2 + 5 mM GSH) | Compound detected [3, 6] [µmol/L] | Compound detected, % of total [3, 6] | Compound detected ([3]; buffer 3 + 5 mM GSN) [µmol/L] | Compound detected, % of total ([3]; buffer 3 + 5 mM GSN) | Compound detected, pk area ([3]; buffer 3 + 5 mM GSN) | Compound detected ([3]; buffer 3 [sic], no GSH) [µmol/L] | Compound detected, % of total ([3]; buffer 3 [sic], no GSH) | Compound detected, pk area ([3]; buffer 3 [sic], no GSH) | Primary screen AVE (% inhib) ± SD (5-HT1A) [% inhib] | Primary screen AVE (% inhib) ± SD (5-HT1D) [% inhib] | further results
O=c1c2sc(Cl)cc2n2c(=S)[nH]nc2n1CC1CC1 [Compound 19, 7-Chloro-4-(cyclopropylmethyl)-1-thioxo-2,4-dihydrothieno[2,3-e][1,2,4]triazolo[4,3-a]pyrimidin-5 (1H)-one] | 1.4 ± 0.03 | 95.4 | 95.4 % of total | 1.38E+09 | 0.8 | 0.8 % of total | 4.90E+06 | 77.9 | 77.9 % of total | 5.81E+08 | 1.9 | 1.9 % of total | 66.9 | 66.9 % of total | 1.89E+08 | 1.3 | 1.3 % of total | 9.61E+08 | -20.0 ± 27.4 | 22.5 ± 25.6 | Cell efficacy (GI50) Mean ± SD ([2]; N.S. = Not significant): N.S.; IC50 (PBD1): 0.00253 ± 0.00018 µM; Plk2 PBD IC50 ± SD (Plk2 PBD): N.S.; Plk3 PBD IC50 ± SD (Plk3 PBD): N.S.; Compound detected, pk area [3, 6]: 1.56E+06; Primary screen AVE (% inhib) ± SD (5-HT1E): 31.3 ± 7.6 % inhib; Primary screen AVE (% inhib) ± SD (Aipha1D): -9.9 ± 23.4 % inhib; Primary screen AVE (% inhib) ± SD (Alpha2B): -6.4 ± 7.1 % inhib; Primary screen AVE (% inhib) ± SD (Beta1): -6.2 ± 19.4 % inhib; Primary screen AVE (% inhib) ± SD (D2): -27.4 ± 13.1 % inhib; Primary screen AVE (% inhib) ± SD (D5): 28.7 ± 10.7 % inhib; Ki (GABAA): > 10 µM; Primary screen AVE (% inhib) ± SD (GABAA): 35.7 ± 11.1 % inhib; Primary screen AVE (% inhib) ± SD (M3): 7.5 ± 45.6 % inhib; Primary screen AVE (% inhib) ± SD (MOR): 30.8 ± 47.5 % inhib; Primary screen AVE (% inhib) ± SD (SERT): -28.9 ± 28.7 % inhib; Primary screen AVE (% inhib) ± SD (Sigma 1): 2.0 ± 21.4 % inhib
Cn1cnc([N+](=O)[O-])c1Sc1nnc2n(CC3CC3)c(=O)c3sc(Cl)cc3n12 [Compound 20, 7-Chloro-4-(cyclopropylmethyl)-1-((1-methyl-4-nitro-1H-imidazol-5-yl)thio) thieno[2,3-e][1,2,4]triazolo[4,3-a]pyrimidin-5 (4H)-one] | > 25 | 0.1 | 0.1 % of total | 8.76E+08 | 97.6 | 97.6 % of total | 6.28E+08 | 0.0 | 0.0 % of total | 2.41E+03 | 93.1 | 93.1 % of total | 0.0 | 0.0 % of total | 93500 | 97.9 | 97.9 % of total | 7.45E+08 | -12.8 ± 19.7 | 32.8 ± 27.1 | GI50 ([2]; Homo sapiens, L-363, N.S. = Not significant, read-out: Cell efficacy (GI50) Mean ± SD): 4.09 ± 0.14 µM; stability in buffer ([3]; in the absence of GSH): remains stable; conversion of the prodrug to the active Allopole-A form ([3]; with 5 mM GSH): rapid conversion; effect of inhibition of PBD1-dependent interactions and subcellular localizations (Hela cells): mitotic block; sensitivity of Plk1 with F559 mutated to a charged residue to treatment [4]: insensitive; Primary screen AVE (% inhib) ± SD (5-HT1E): 22.2 ± 10.5 % inhib; Primary screen AVE (% inhib) ± SD (Aipha1D): -15.1 ± 19.8 % inhib; Primary screen AVE (% inhib) ± SD (Alpha2B): 8.3 ± 16.4 % inhib; Primary screen AVE (% inhib) ± SD (Beta1): 67.3 ± 49.1 % inhib; Primary screen AVE (% inhib) ± SD (D2): 3.6 ± 6.6 % inhib; Primary screen AVE (% inhib) ± SD (D5): 20.9 ± 9.5 % inhib; Ki (GABAA): > 10 µM; Primary screen AVE (% inhib) ± SD (GABAA): 33.3 ± 4.2 % inhib; Primary screen AVE (% inhib) ± SD (M3): 48.3 ± 21.9 % inhib; Primary screen AVE (% inhib) ± SD (MOR): 40.6 ± 51.0 % inhib; Primary screen AVE (% inhib) ± SD (SERT): -56.0 ± 13.9 % inhib; Primary screen AVE (% inhib) ± SD (Sigma 1): 41.8 ± 11.9 % inhib
